Assay results as given in US4146631A, “Benzamide derivatives” (May & Baker Limited, priority 1976, dated 1979).

System: passive cutaneous anaphylactic (PCA) reaction
Assay: Passive cutaneous anaphylactic (PCA) reaction, reagin-allergen combination, in rats
Assay type: in vivo
Conditions: Rattus norvegicus, intravenous, just before injection of allergen, read-out: ED100 (intravenous dose which produces 100% inhibition of the PCA reaction)
Text: In pharmacological tests the benzamide derivatives of general formula I suppress the passive cutaneous anaphylactic (PCA) reaction resulting from combination of tissue-fixed reaginic antibodies with the appropriate antigenic material (termed reagin-allergen combination) and carried out in an essentially similar manner to that described by Ogilvie [Nature (Lond.), (1964), 204, 91-92; Immunology, (1967), 12, 112-131]. In the method used to test these compounds sera were obtained from rats which had been infected with larvae of the nematode parasite Nippostrongylus brasiliensis; as a result of the parasitic infestation reaginic antibodies are elaborated in the host mammal and are found in sera removed from such animals. Other, non-infected, rats received intradermal injections of appropriate dilutions of such sera and were then given the allergenic material along with Evans' blue dye intravenously forty-eight hours later.
The allergenic material consisted of supernatant fluid after centrifugation of homogenates of adult Nippostrongylus brasiliensis worms which had been macerated in Tyrode's solution. The sites of PCA reactions were visualised by the effusion of Evan's blue dye from the circulation into those areas as a result of increased capillary permeability caused by the release of biologically-active substances from cells where reagin-allergen combination had occurred. The new compounds when given intravenously to the rats just before injection of allergen, or administered orally thirty minutes before intravenous injection of allergen, were able to prevent the development of the PCA reaction, as shown below in Table I, Table II and Table III.

| Structure (SMILES) | ED100 [mg/kg] |
| --- | --- |
| O=C(Nc1nnn[nH]1)c1cccc(Br)c1O [Compound AL, 3-bromo-2-hydroxy-N-(tetrazol-5-yl)benzamide] | 10 |
| O=C(Nc1nnn[nH]1)c1cc(Cl)ccc1O [Compound AD, 5-chloro-2-hydroxy-N-(tetrazol-5-yl)benzamide] | 1 |
| COc1cccc(C(=O)Nc2nnn[nH]2)c1O [Compound BE, 2-hydroxy-3-methoxy-N-(tetrazol-5-yl)benzamide] | 0.2 |
| CCC(=O)c1cc(C)cc(C(=O)Nc2nnn[nH]2)c1O [CE, 2-hydroxy-5-methyl-3-propionyl-N-(tetrazol-5-yl)benzamide] | 0.05 |
| CCC(=O)c1cc(CC)cc(C(=O)Nc2nnn[nH]2)c1O [CF, 5-ethyl-2-hydroxy-3-propionyl-N-(tetrazol-5-yl)benzamide] | 0.05 |
| CCc1cc(C(C)=O)c(O)c(C(=O)Nc2nnn[nH]2)c1 [BW, 3-acetyl-5-ethyl-2-hydroxy-N-(tetrazol-5-yl)benzamide] | 0.1 |
| CC(=O)c1cc(C)cc(C(=O)Nc2nnn[nH]2)c1O [AR, 3-acetyl-2-hydroxy-5-methyl-N-(tetrazol-5-yl)benzamide] | 0.1 |
| CCCC(=O)c1cc(CC)cc(C(=O)Nc2nnn[nH]2)c1O [Compound CG, 3-butyryl-5-ethyl-2-hydroxy-N-(tetrazol-5-yl)benzamide] | 0.1 |
| CC(=O)Nc1ccc(C(=O)Nc2nnn[nH]2)c(O)c1 [BB, 4-acetylamino-2-hydroxy-N-(tetrazol-5-yl)benzamide] | 1 |
| CC(=O)c1ccc(O)c(C(=O)Nc2nnn[nH]2)c1 [Compound AV, 5-acetyl-2-hydroxy-N-(tetrazol-5-yl)benzamide] | 10 |
| Cc1cc(C(=O)Nc2nnn[nH]2)c(O)c(C(=O)c2ccccc2)c1 [CR, 3-benzoyl-2-hydroxy-5-methyl-N-(tetrazol-5-yl)benzamide] | 1 |
| O=C(Nc1nnn[nH]1)c1cccc([N+](=O)[O-])c1O [AI, 2-hydroxy-3-nitro-N-(tetrazol-5-yl)benzamide] | 0.5 |
| O=C(Nc1nnn[nH]1)c1cc(F)ccc1O [Compound BH, 5-fluoro-2-hydroxy-N-(tetrazol-5-yl)benzamide] | 1 |
| CC(C)(C)c1ccc(C(=O)Nc2nnn[nH]2)c(O)c1 [BA, 4-tert-butyl-2-hydroxy-N-(tetrazol-5-yl)benzamide] | 10 |

Same assay, conditions: Rattus norvegicus, oral dose of 100 mg/kg, thirty minutes before intravenous allergen

| Structure (SMILES) | inhibition in vivo at 100 mg/kg [%] |
| --- | --- |
| O=C(Nc1nnn[nH]1)c1cccc(Br)c1O [Compound AL, 3-bromo-2-hydroxy-N-(tetrazol-5-yl)benzamide] | 69 |
| O=C(Nc1nnn[nH]1)c1cc(Cl)ccc1O [Compound AD, 5-chloro-2-hydroxy-N-(tetrazol-5-yl)benzamide] | 94 |
| COc1cccc(C(=O)Nc2nnn[nH]2)c1O [Compound BE, 2-hydroxy-3-methoxy-N-(tetrazol-5-yl)benzamide] | 62 |
| CCC(=O)c1cc(C)cc(C(=O)Nc2nnn[nH]2)c1O [CE, 2-hydroxy-5-methyl-3-propionyl-N-(tetrazol-5-yl)benzamide] | 99 |
| CCC(=O)c1cc(CC)cc(C(=O)Nc2nnn[nH]2)c1O [CF, 5-ethyl-2-hydroxy-3-propionyl-N-(tetrazol-5-yl)benzamide] | 41 |
| CCc1cc(C(C)=O)c(O)c(C(=O)Nc2nnn[nH]2)c1 [BW, 3-acetyl-5-ethyl-2-hydroxy-N-(tetrazol-5-yl)benzamide] | 51 |
| CC(=O)c1cc(C)cc(C(=O)Nc2nnn[nH]2)c1O [AR, 3-acetyl-2-hydroxy-5-methyl-N-(tetrazol-5-yl)benzamide] | 42 |
| CCCC(=O)c1cc(CC)cc(C(=O)Nc2nnn[nH]2)c1O [Compound CG, 3-butyryl-5-ethyl-2-hydroxy-N-(tetrazol-5-yl)benzamide] | 55 |
| CC(=O)Nc1ccc(C(=O)Nc2nnn[nH]2)c(O)c1 [BB, 4-acetylamino-2-hydroxy-N-(tetrazol-5-yl)benzamide] | 26 |
| CC(=O)c1ccc(O)c(C(=O)Nc2nnn[nH]2)c1 [Compound AV, 5-acetyl-2-hydroxy-N-(tetrazol-5-yl)benzamide] | 16 |
| Cc1cc(C(=O)Nc2nnn[nH]2)c(O)c(C(=O)c2ccccc2)c1 [CR, 3-benzoyl-2-hydroxy-5-methyl-N-(tetrazol-5-yl)benzamide] | 22 |
| O=C(Nc1nnn[nH]1)c1cccc([N+](=O)[O-])c1O [AI, 2-hydroxy-3-nitro-N-(tetrazol-5-yl)benzamide] | 68 |
| O=C(Nc1nnn[nH]1)c1cc(F)ccc1O [Compound BH, 5-fluoro-2-hydroxy-N-(tetrazol-5-yl)benzamide] | 94 |
| CC(C)(C)c1ccc(C(=O)Nc2nnn[nH]2)c(O)c1 [BA, 4-tert-butyl-2-hydroxy-N-(tetrazol-5-yl)benzamide] | 37 |

Same assay, conditions: Rattus norvegicus, oral, thirty minutes before intravenous allergen, read-out: ED50 (oral dose which produces 50% inhibition of the PCA reaction)

| Structure (SMILES) | ED50 [mg/kg] |
| --- | --- |
| O=C(Nc1nnn[nH]1)c1cccc(Br)c1O [Compound AL, 3-bromo-2-hydroxy-N-(tetrazol-5-yl)benzamide] | 55 |
| O=C(Nc1nnn[nH]1)c1cc(Cl)ccc1O [Compound AD, 5-chloro-2-hydroxy-N-(tetrazol-5-yl)benzamide] | 13 |
| COc1cccc(C(=O)Nc2nnn[nH]2)c1O [Compound BE, 2-hydroxy-3-methoxy-N-(tetrazol-5-yl)benzamide] | 18 |
| CCC(=O)c1cc(C)cc(C(=O)Nc2nnn[nH]2)c1O [CE, 2-hydroxy-5-methyl-3-propionyl-N-(tetrazol-5-yl)benzamide] | 0.4 |
| CCC(=O)c1cc(CC)cc(C(=O)Nc2nnn[nH]2)c1O [CF, 5-ethyl-2-hydroxy-3-propionyl-N-(tetrazol-5-yl)benzamide] | 0.27 |
| CCc1cc(C(C)=O)c(O)c(C(=O)Nc2nnn[nH]2)c1 [BW, 3-acetyl-5-ethyl-2-hydroxy-N-(tetrazol-5-yl)benzamide] | 0.1 |
| CC(=O)c1cc(C)cc(C(=O)Nc2nnn[nH]2)c1O [AR, 3-acetyl-2-hydroxy-5-methyl-N-(tetrazol-5-yl)benzamide] | 0.75 |
| CCCC(=O)c1cc(CC)cc(C(=O)Nc2nnn[nH]2)c1O [Compound CG, 3-butyryl-5-ethyl-2-hydroxy-N-(tetrazol-5-yl)benzamide] | 2.2 |
| O=C(Nc1nnn[nH]1)c1cccc([N+](=O)[O-])c1O [AI, 2-hydroxy-3-nitro-N-(tetrazol-5-yl)benzamide] | 5 to 30 |
| O=C(Nc1nnn[nH]1)c1cc(F)ccc1O [Compound BH, 5-fluoro-2-hydroxy-N-(tetrazol-5-yl)benzamide] | 16 |

System: not listed separately
Assay: Acute intravenous toxicity in mice
Conditions: mouse, in vivo, sodium salt (Na), 2% w/v test solution
Text: Mice were each treated intravenously with an aqueous solution of the triethanolamine salt or sodium salt of one of the compounds of formula I, and they were observed until there had been at least 3 consecutive days without any deaths. The LD50 figures obtained (doses lethal to 50% of mice tested) are shown below in Table V, expressed in mg/kg animal body weight. In Table V, "Na" means that the sodium salt was used and "T" means that the triethanolamine salt was used.
The aqueous solutions were prepared as follows:
A mixture of the test compound and water was treated gradually with triethanolamine until complete solution occurred. The solution was then diluted with water to a concentration of test compound of either 1% w/v or 2% w/v.
The test compound was dissolved in aqueous sodium hydroxide (1N) and the solution was brought to pH 8 by treatment with hydrochloric acid. The solution was then diluted with water to a concentration of test compound of 2% w/v.
Various volumes of these solutions were then administered to the mice.

| Structure (SMILES) | LD50 [mg/kg] |
| --- | --- |
| O=C(Nc1nnn[nH]1)c1cc(Cl)ccc1O [Compound AD, 5-chloro-2-hydroxy-N-(tetrazol-5-yl)benzamide] | 480 |
| CCc1cc(C(C)=O)c(O)c(C(=O)Nc2nnn[nH]2)c1 [BW, 3-acetyl-5-ethyl-2-hydroxy-N-(tetrazol-5-yl)benzamide] | 320 |

Same assay, conditions: mouse, in vivo, triethanolamine salt (T), 1% w/v solution for lower doses, 2% w/v for higher doses

| Structure (SMILES) | LD50 [mg/kg] |
| --- | --- |
| CCCC(=O)c1cc(CC)cc(C(=O)Nc2nnn[nH]2)c1O [Compound CG, 3-butyryl-5-ethyl-2-hydroxy-N-(tetrazol-5-yl)benzamide] | 270 |
| O=C(Nc1nnn[nH]1)c1cc(F)ccc1O [Compound BH, 5-fluoro-2-hydroxy-N-(tetrazol-5-yl)benzamide] | 500 |

Same assay, conditions: mouse, in vivo, triethanolamine salt (T), 2% w/v test solution

| Structure (SMILES) | LD50 [mg/kg] |
| --- | --- |
| O=C(Nc1nnn[nH]1)c1cccc(Br)c1O [Compound AL, 3-bromo-2-hydroxy-N-(tetrazol-5-yl)benzamide] | 540 |
| COc1cccc(C(=O)Nc2nnn[nH]2)c1O [Compound BE, 2-hydroxy-3-methoxy-N-(tetrazol-5-yl)benzamide] | 580 |
| CCC(=O)c1cc(C)cc(C(=O)Nc2nnn[nH]2)c1O [CE, 2-hydroxy-5-methyl-3-propionyl-N-(tetrazol-5-yl)benzamide] | 270 |
| CCC(=O)c1cc(CC)cc(C(=O)Nc2nnn[nH]2)c1O [CF, 5-ethyl-2-hydroxy-3-propionyl-N-(tetrazol-5-yl)benzamide] | 280 |
| CC(=O)c1cc(C)cc(C(=O)Nc2nnn[nH]2)c1O [AR, 3-acetyl-2-hydroxy-5-methyl-N-(tetrazol-5-yl)benzamide] | 430 |
| CC(=O)Nc1ccc(C(=O)Nc2nnn[nH]2)c(O)c1 [BB, 4-acetylamino-2-hydroxy-N-(tetrazol-5-yl)benzamide] | 645 |
| CC(=O)c1ccc(O)c(C(=O)Nc2nnn[nH]2)c1 [Compound AV, 5-acetyl-2-hydroxy-N-(tetrazol-5-yl)benzamide] | 645 |
| Cc1cc(C(=O)Nc2nnn[nH]2)c(O)c(C(=O)c2ccccc2)c1 [CR, 3-benzoyl-2-hydroxy-5-methyl-N-(tetrazol-5-yl)benzamide] | 350 |
| O=C(Nc1nnn[nH]1)c1cccc([N+](=O)[O-])c1O [AI, 2-hydroxy-3-nitro-N-(tetrazol-5-yl)benzamide] | > 1000 |
| CC(C)(C)c1ccc(C(=O)Nc2nnn[nH]2)c(O)c1 [BA, 4-tert-butyl-2-hydroxy-N-(tetrazol-5-yl)benzamide] | 230 |

System: not listed separately
Assay: Acute oral toxicity in mice
Conditions: mouse, in vivo, highest dose used 1000 mg/kg, read-out: LD50 (doses lethal to 50% of mice tested)
Text: Mice were each treated orally with one of the compounds of formula I, and they were observed daily until there had been at least 3 consecutive days without any deaths. The LD50 figures obtained (doses lethal to 50% of mice tested) are shown below in Table IV, expressed in mg/kg animal body weight.
The symbol ">" means "greater than" in this specification. Where the LD50 is said to be ">1000," a more precise estimation of the LD50 was not possible because the numbers of deaths was too small, even at the highest dose used, 1000 mg/kg.

| Structure (SMILES) | LD50 [mg/kg] |
| --- | --- |
| O=C(Nc1nnn[nH]1)c1cccc(Br)c1O [Compound AL, 3-bromo-2-hydroxy-N-(tetrazol-5-yl)benzamide] | 794 |
| O=C(Nc1nnn[nH]1)c1cc(Cl)ccc1O [Compound AD, 5-chloro-2-hydroxy-N-(tetrazol-5-yl)benzamide] | > 1000 |
| COc1cccc(C(=O)Nc2nnn[nH]2)c1O [Compound BE, 2-hydroxy-3-methoxy-N-(tetrazol-5-yl)benzamide] | > 1000 |
| CCC(=O)c1cc(C)cc(C(=O)Nc2nnn[nH]2)c1O [CE, 2-hydroxy-5-methyl-3-propionyl-N-(tetrazol-5-yl)benzamide] | > 1000 |
| CCC(=O)c1cc(CC)cc(C(=O)Nc2nnn[nH]2)c1O [CF, 5-ethyl-2-hydroxy-3-propionyl-N-(tetrazol-5-yl)benzamide] | > 1000 |
| CCc1cc(C(C)=O)c(O)c(C(=O)Nc2nnn[nH]2)c1 [BW, 3-acetyl-5-ethyl-2-hydroxy-N-(tetrazol-5-yl)benzamide] | > 1000 |
| CC(=O)c1cc(C)cc(C(=O)Nc2nnn[nH]2)c1O [AR, 3-acetyl-2-hydroxy-5-methyl-N-(tetrazol-5-yl)benzamide] | > 1000 |
| CCCC(=O)c1cc(CC)cc(C(=O)Nc2nnn[nH]2)c1O [Compound CG, 3-butyryl-5-ethyl-2-hydroxy-N-(tetrazol-5-yl)benzamide] | > 1000 |
| CC(=O)Nc1ccc(C(=O)Nc2nnn[nH]2)c(O)c1 [BB, 4-acetylamino-2-hydroxy-N-(tetrazol-5-yl)benzamide] | > 1000 |
| CC(=O)c1ccc(O)c(C(=O)Nc2nnn[nH]2)c1 [Compound AV, 5-acetyl-2-hydroxy-N-(tetrazol-5-yl)benzamide] | > 1000 |
| Cc1cc(C(=O)Nc2nnn[nH]2)c(O)c(C(=O)c2ccccc2)c1 [CR, 3-benzoyl-2-hydroxy-5-methyl-N-(tetrazol-5-yl)benzamide] | > 1000 |
| O=C(Nc1nnn[nH]1)c1cccc([N+](=O)[O-])c1O [AI, 2-hydroxy-3-nitro-N-(tetrazol-5-yl)benzamide] | > 1000 |
| O=C(Nc1nnn[nH]1)c1cc(F)ccc1O [Compound BH, 5-fluoro-2-hydroxy-N-(tetrazol-5-yl)benzamide] | > 1000 |
| CC(C)(C)c1ccc(C(=O)Nc2nnn[nH]2)c(O)c1 [BA, 4-tert-butyl-2-hydroxy-N-(tetrazol-5-yl)benzamide] | > 1000 |
